Measured values published in PubChem BioAssay (NCI).
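Dose response: 5 concentrations. Exposure: 48 h. Format: 96-well plates. Endpoint: linear interpolation; highest concentration if not reached. GI50 is the concentration that inhibits growth by half. TGI is the concentration that stops growth completely.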

Key:
Assay in all cases: inhibition of tumour cell growth, NCI panel, 48 h
SK-OV-3 ovarian = tested on: SK-OV-3 ovarian
HT29 colon = tested on: HT29 colon
UACC-62 melanoma = tested on: UACC-62 melanoma
SF-539 CNS = tested on: SF-539 CNS
K-562 leukemia = tested on: K-562 leukemia
HCT-116 colon = tested on: HCT-116 colon
SF-268 CNS = tested on: SF-268 CNS
CAKI-1 renal = tested on: CAKI-1 renal
HOP-92 NSCLC = tested on: HOP-92 NSCLC
IGROV1 ovarian = tested on: IGROV1 ovarian
SNB-75 CNS = tested on: SNB-75 CNS
U251 CNS = tested on: U251 CNS
UO-31 renal = tested on: UO-31 renal
SK-MEL-5 melanoma = tested on: SK-MEL-5 melanoma
A498 renal = tested on: A498 renal
COLO 205 colon = tested on: COLO 205 colon
SNB-19 CNS = tested on: SNB-19 CNS
NCI-H460 lung = tested on: NCI-H460 lung
LOX IMVI melanoma = tested on: LOX IMVI melanoma
OVCAR-3 ovarian = tested on: OVCAR-3 ovarian
SK-MEL-28 melanoma = tested on: SK-MEL-28 melanoma
NCI-H226 lung = tested on: NCI-H226 lung
A549 NSCLC = tested on: A549 NSCLC
OVCAR-8 ovarian = tested on: OVCAR-8 ovarian
KM20L2 colon = tested on: KM20L2 colon
OVCAR-4 ovarian = tested on: OVCAR-4 ovarian
MALME-3M melanoma = tested on: MALME-3M melanoma
786-0 renal = tested on: 786-0 renal
NCI-H522 lung = tested on: NCI-H522 lung
KM12 colon = tested on: KM12 colon
NCI-H23 lung = tested on: NCI-H23 lung
SN12C renal = tested on: SN12C renal
M14 melanoma = tested on: M14 melanoma
RPMI-8226 leukemia = tested on: RPMI-8226 leukemia
TK-10 renal = tested on: TK-10 renal
MOLT-4 leukemia = tested on: MOLT-4 leukemia
SW-620 colon = tested on: SW-620 colon
SK-MEL-2 melanoma = tested on: SK-MEL-2 melanoma
HCT-15 colon = tested on: HCT-15 colon
HOP-62 NSCLC = tested on: HOP-62 NSCLC
SF-295 CNS = tested on: SF-295 CNS
ACHN renal = tested on: ACHN renal
RXF 393 renal = tested on: RXF 393 renal
UACC-257 melanoma = tested on: UACC-257 melanoma
HCC-2998 colon = tested on: HCC-2998 colon
HL-60(TB) leukemia = tested on: HL-60(TB) leukemia
MDA-N = tested on: MDA-N
OVCAR-5 ovarian = tested on: OVCAR-5 ovarian
MCF7 breast = tested on: MCF7 breast
PC-3 prostate = tested on: PC-3 prostate
NCI/ADR-RES ovarian = tested on: NCI/ADR-RES ovarian
HS 578T breast = tested on: HS 578T breast
BT-549 breast = tested on: BT-549 breast
DU-145 prostate = tested on: DU-145 prostate
CCRF-CEM leukemia = tested on: CCRF-CEM leukemia
SR leukemia = tested on: SR leukemia
MDA-MB-231 breast = tested on: MDA-MB-231 breast
MDA-MB-435 = tested on: MDA-MB-435
EKVX NSCLC = tested on: EKVX NSCLC
T-47D breast = tested on: T-47D breast

## C1C[OH+]CC[OH+]CC[OH+]CC[OH+]CC[OH+]CC[OH+]1.[Cl-].[V]
SK-OV-3 ovarian
  GI50: 45.9 µM
  TGI: 97 µM
HT29 colon
  GI50: 39.7 µM
  TGI: > 100 µM
UACC-62 melanoma
  GI50: 10.7 µM
  TGI: 51.4 µM
SF-539 CNS
  GI50: 5.43 µM
  TGI: 17.9 µM
K-562 leukemia
  GI50: > 100 µM
  TGI: > 100 µM
HCT-116 colon
  GI50: 35.9 µM
  TGI: > 100 µM
SF-268 CNS
  GI50: 42.9 µM
  TGI: > 100 µM
CAKI-1 renal
  GI50: 36.9 µM
  TGI: > 100 µM
HOP-92 NSCLC
  GI50: 31.5 µM
  TGI: 99.2 µM
IGROV1 ovarian
  GI50: 13 µM
  TGI: > 100 µM
SNB-75 CNS
  GI50: 13.9 µM
  TGI: 30 µM
U251 CNS
  GI50: 35.8 µM
  TGI: > 100 µM
UO-31 renal
  GI50: > 100 µM
  TGI: > 100 µM
SK-MEL-5 melanoma
  GI50: 4.76 µM
  TGI: 25.3 µM
A498 renal
  GI50: > 100 µM
  TGI: > 100 µM
COLO 205 colon
  GI50: > 100 µM
  TGI: > 100 µM
SNB-19 CNS
  GI50: 47.1 µM
  TGI: > 100 µM
NCI-H460 lung
  GI50: 36 µM
  TGI: > 100 µM
LOX IMVI melanoma
  GI50: 20.7 µM
  TGI: 38.7 µM
OVCAR-3 ovarian
  GI50: 20.7 µM
  TGI: 41.8 µM
SK-MEL-28 melanoma
  GI50: 13.7 µM
  TGI: 43.5 µM
NCI-H226 lung
  GI50: 40.1 µM
  TGI: > 100 µM
A549 NSCLC
  GI50: 39.1 µM
  TGI: > 100 µM
OVCAR-8 ovarian
  GI50: > 100 µM
  TGI: > 100 µM
KM20L2 colon
  GI50: 46.5 µM
  TGI: > 100 µM
OVCAR-4 ovarian
  GI50: 2.52 µM
  TGI: 9.27 µM
MALME-3M melanoma
  GI50: 8.19 µM
  TGI: 28.7 µM
786-0 renal
  GI50: 11.7 µM
  TGI: 33.9 µM
NCI-H522 lung
  GI50: 26.3 µM
  TGI: 99.5 µM
KM12 colon
  GI50: 31.3 µM
  TGI: > 100 µM
NCI-H23 lung
  GI50: 21.9 µM
  TGI: 47.7 µM
SN12C renal
  GI50: > 100 µM
  TGI: > 100 µM
M14 melanoma
  GI50: 12.1 µM
  TGI: 93.8 µM
RPMI-8226 leukemia
  GI50: 64.1 µM
  TGI: > 100 µM
TK-10 renal
  GI50: 20.4 µM
  TGI: 92.5 µM
MOLT-4 leukemia
  GI50: 82.5 µM
  TGI: > 100 µM
SW-620 colon
  GI50: 49.6 µM
  TGI: > 100 µM
SK-MEL-2 melanoma
  GI50: 29.2 µM
  TGI: 98.2 µM
HCT-15 colon
  GI50: 50.9 µM
  TGI: > 100 µM
HOP-62 NSCLC
  GI50: 19.2 µM
  TGI: 33.9 µM
SF-295 CNS
  GI50: 18.7 µM
  TGI: 43.8 µM
ACHN renal
  GI50: 31.1 µM
  TGI: > 100 µM
RXF 393 renal
  GI50: 4.89 µM
  TGI: 19 µM
UACC-257 melanoma
  GI50: 16.6 µM
  TGI: 37.4 µM
HCC-2998 colon
  GI50: 71.9 µM
  TGI: > 100 µM
HL-60(TB) leukemia
  GI50: 37.1 µM
  TGI: > 100 µM

## CC1(C)OCC(C2OC3OC(C)(C)OC3C2N)O1 (stereo unspecified)
SK-OV-3 ovarian
  TGI: > 100 µM
HT29 colon
  TGI: > 100 µM
UACC-62 melanoma
  TGI: > 100 µM
SF-539 CNS
  TGI: > 100 µM
K-562 leukemia
  TGI: > 100 µM
HCT-116 colon
  TGI: > 100 µM
SF-268 CNS
  TGI: > 100 µM
CAKI-1 renal
  TGI: > 100 µM
HOP-92 NSCLC
  TGI: > 100 µM
IGROV1 ovarian
  TGI: > 100 µM
SNB-75 CNS
  TGI: > 100 µM
MDA-N
  TGI: > 100 µM
U251 CNS
  TGI: > 100 µM
UO-31 renal
  TGI: > 100 µM
SK-MEL-5 melanoma
  TGI: > 100 µM
A498 renal
  TGI: > 100 µM
COLO 205 colon
  TGI: > 100 µM
OVCAR-5 ovarian
  TGI: > 100 µM
MCF7 breast
  TGI: > 100 µM
PC-3 prostate
  TGI: > 100 µM
SNB-19 CNS
  TGI: > 100 µM
NCI/ADR-RES ovarian
  TGI: > 100 µM
NCI-H460 lung
  TGI: > 100 µM
LOX IMVI melanoma
  TGI: > 100 µM
OVCAR-3 ovarian
  TGI: > 100 µM
HS 578T breast
  TGI: > 100 µM
SK-MEL-28 melanoma
  TGI: > 100 µM
NCI-H226 lung
  TGI: > 100 µM
A549 NSCLC
  TGI: > 100 µM
OVCAR-8 ovarian
  TGI: > 100 µM
BT-549 breast
  TGI: > 100 µM
OVCAR-4 ovarian
  TGI: > 100 µM
MALME-3M melanoma
  TGI: > 100 µM
786-0 renal
  TGI: > 100 µM
NCI-H522 lung
  TGI: > 100 µM
KM12 colon
  TGI: > 100 µM
NCI-H23 lung
  TGI: > 100 µM
SN12C renal
  TGI: > 100 µM
M14 melanoma
  TGI: > 100 µM
DU-145 prostate
  TGI: > 100 µM
RPMI-8226 leukemia
  TGI: > 100 µM
TK-10 renal
  TGI: > 100 µM
MOLT-4 leukemia
  TGI: > 100 µM
CCRF-CEM leukemia
  TGI: > 100 µM
SR leukemia
  TGI: > 100 µM
MDA-MB-231 breast
  TGI: > 100 µM
SW-620 colon
  TGI: > 100 µM
SK-MEL-2 melanoma
  TGI: > 100 µM
HCT-15 colon
  TGI: > 100 µM
HOP-62 NSCLC
  TGI: > 100 µM
MDA-MB-435
  TGI: > 100 µM
EKVX NSCLC
  TGI: > 100 µM
SF-295 CNS
  TGI: > 100 µM
T-47D breast
  TGI: > 100 µM
ACHN renal
  TGI: > 100 µM
RXF 393 renal
  TGI: > 100 µM
UACC-257 melanoma
  TGI: > 100 µM
HCC-2998 colon
  TGI: > 100 µM
HL-60(TB) leukemia
  TGI: > 100 µM
